Test results taken from the supplement of paper PMC10307832.

Tests used:
Assay in all cases: relative viability (nuclei count vs DMSO), 5 days (fraction); higher = more cells survive
201T = system: 201T
Procedure, shortened: (§1)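 Lung cancer cell lines were pin-tool dosed in 1536-well plates on the day after seeding, with either a lone drug or a fixed anchor-drug dose plus five library-drug doses (not always all listed) in √10 steps. Nuclei were counted on 4× images after 5 days. Relative viability is the ratio of treated-well to vehicle-well nuclei counts, with each value a median of duplicate plates.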

A-427 = system: A-427
Procedure, shortened: as §1

COR-L 105 = system: COR-L 105
Procedure, shortened: as §1

COR-L23 = system: COR-L23
Procedure, shortened: as §1

EKVX = system: EKVX
Procedure, shortened: as §1

HARA = system: HARA
Procedure, shortened: as §1

HCC-15 = system: HCC-15
Procedure, shortened: as §1

HCC-44 = system: HCC-44
Procedure, shortened: as §1

HCC-827 = system: HCC-827
Procedure, shortened: as §1

LCLC-103H = system: LCLC-103H
Procedure, shortened: as §1

LK-2 = system: LK-2
Procedure, shortened: as §1

NCI-H1437 = system: NCI-H1437
Procedure, shortened: as §1

NCI-H1666 = system: NCI-H1666
Procedure, shortened: as §1

NCI-H1792 = system: NCI-H1792
Procedure, shortened: as §1

NCI-H1975 = system: NCI-H1975
Procedure, shortened: as §1

NCI-H23 = system: NCI-H23
Procedure, shortened: as §1

NCI-H441 = system: NCI-H441
Procedure, shortened: as §1

NCI-H520 = system: NCI-H520
Procedure, shortened: as §1

NCI-H596 = system: NCI-H596
Procedure, shortened: as §1

NCI-H650 = system: NCI-H650
Procedure, shortened: as §1

NCI-H838 = system: NCI-H838
Procedure, shortened: as §1

SK-MES-1 = system: SK-MES-1
Procedure, shortened: as §1

CC(C)Oc1cc(Nc2nc(N[C@@H](C)c3ccc(F)cn3)ncc2Cl)n[nH]1 [AZ23] + C[C@]1(O)C[C@@H](c2nc(-c3ccc4ccc(-c5ccccc5)nc4c3)c3c(N)nccn32)C1 [Linsitinib] (partner 1 µM) was tested, and the relative viability (201T; first compound 0.01 µM) was 1.01, the relative viability (201T; first compound 0.03162 µM) was 1.11 and the relative viability (201T; first compound 0.3162 µM) was 0.996. The relative viability (A-427; first compound 0.01 µM) was 1.24, the relative viability (A-427; first compound 0.03162 µM) was 1.11 and the relative viability (A-427; first compound 0.3162 µM) was 1.16. For the same molecule, the relative viability (COR-L 105; first compound 0.01 µM) was 0.664, the relative viability (COR-L 105; first compound 0.03162 µM) was 1.14 and the relative viability (COR-L 105; first compound 0.3162 µM) was 0.808. For the same molecule, the relative viability (COR-L23; first compound 0.01 µM) was 0.948, the relative viability (COR-L23; first compound 0.03162 µM) was 1.11 and the relative viability (COR-L23; first compound 0.3162 µM) was 0.878. For the same molecule, the relative viability (EKVX; first compound 0.01 µM) was 1.01, the relative viability (EKVX; first compound 0.03162 µM) was 1.22 and the relative viability (EKVX; first compound 0.3162 µM) was 0.969. For the same molecule, the relative viability (HARA; first compound 0.01 µM) was 0.977, the relative viability (HARA; first compound 0.03162 µM) was 1.04 and the relative viability (HARA; first compound 0.3162 µM) was 0.854. It also gave a relative viability (HCC-15; first compound 0.01 µM) of 0.916, a relative viability (HCC-15; first compound 0.03162 µM) of 0.906 and a relative viability (HCC-15; first compound 0.3162 µM) of 0.875. It also gave a relative viability (HCC-44; first compound 0.01 µM) of 0.684, a relative viability (HCC-44; first compound 0.03162 µM) of 0.74 and a relative viability (HCC-44; first compound 0.3162 µM) of 0.632. The relative viability (HCC-827; first compound 0.01 µM) was 1, the relative viability (HCC-827; first compound 0.03162 µM) was 1.04 and the relative viability (HCC-827; first compound 0.3162 µM) was 0.93. For the same molecule, the relative viability (LCLC-103H; first compound 0.01 µM) was 1.07, the relative viability (LCLC-103H; first compound 0.03162 µM) was 1.03 and the relative viability (LCLC-103H; first compound 0.3162 µM) was 1.15. It also gave a relative viability (LK-2; first compound 0.01 µM) of 0.325, a relative viability (LK-2; first compound 0.03162 µM) of 0.538 and a relative viability (LK-2; first compound 0.3162 µM) of 0.5. The relative viability (NCI-H1437; first compound 0.01 µM) was 1.07, the relative viability (NCI-H1437; first compound 0.03162 µM) was 1.18 and the relative viability (NCI-H1437; first compound 0.3162 µM) was 1.28. It also gave a relative viability (NCI-H1666; first compound 0.01 µM) of 0.719, a relative viability (NCI-H1666; first compound 0.03162 µM) of 0.943 and a relative viability (NCI-H1666; first compound 0.3162 µM) of 0.775. It also gave a relative viability (NCI-H1792; first compound 0.01 µM) of 0.565, a relative viability (NCI-H1792; first compound 0.03162 µM) of 0.597 and a relative viability (NCI-H1792; first compound 0.3162 µM) of 0.61. The relative viability (NCI-H1975; first compound 0.01 µM) was 1.13, the relative viability (NCI-H1975; first compound 0.03162 µM) was 1.06 and the relative viability (NCI-H1975; first compound 0.3162 µM) was 0.972. The relative viability (NCI-H23; first compound 0.03162 µM) was 0.697, the relative viability (NCI-H23; first compound 0.3162 µM) was 0.596 and the relative viability (NCI-H441; first compound 0.01 µM) was 0.608. For the same molecule, the relative viability (NCI-H441; first compound 0.03162 µM) was 0.622, the relative viability (NCI-H441; first compound 0.3162 µM) was 0.591 and the relative viability (NCI-H520; first compound 0.01 µM) was 1.18. It also gave a relative viability (NCI-H520; first compound 0.03162 µM) of 1.04, a relative viability (NCI-H520; first compound 0.3162 µM) of 0.921 and a relative viability (NCI-H596; first compound 0.01 µM) of 1.09. It also gave a relative viability (NCI-H596; first compound 0.03162 µM) of 1.18, a relative viability (NCI-H596; first compound 0.3162 µM) of 1 and a relative viability (NCI-H650; first compound 0.01 µM) of 0.648. It also gave a relative viability (NCI-H650; first compound 0.03162 µM) of 0.893, a relative viability (NCI-H650; first compound 0.3162 µM) of 0.857 and a relative viability (NCI-H838; first compound 0.01 µM) of 1.02. It also gave a relative viability (NCI-H838; first compound 0.03162 µM) of 1.23, a relative viability (NCI-H838; first compound 0.3162 µM) of 0.945 and a relative viability (SK-MES-1; first compound 0.01 µM) of 1.09. The relative viability (SK-MES-1; first compound 0.03162 µM) was 1.16 and the relative viability (SK-MES-1; first compound 0.3162 µM) was 1.12.

C[C@@H]1CN(CC(=O)Nc2ccc3c(c2)Cc2cccc(-c4cc(=O)cc(N5CCOCC5)o4)c2S3)C[C@H](C)O1 + C[C@@H](Oc1cc(-c2cnn(C3CCNCC3)c2)cnc1N)c1c(Cl)ccc(F)c1Cl [Crizotinib] (partner 1 µM) gave a relative viability (201T; first compound 0.04 µM) of 1.05, a relative viability (201T; first compound 0.1265 µM) of 0.98 and a relative viability (201T; first compound 0.4 µM) of 1.04. It also gave a relative viability (201T; first compound 4 µM) of 0.971, a relative viability (A-427; first compound 0.04 µM) of 1.04 and a relative viability (A-427; first compound 0.1265 µM) of 0.941. For the same molecule, the relative viability (A-427; first compound 0.4 µM) was 0.827, the relative viability (A-427; first compound 4 µM) was 0.844 and the relative viability (COR-L 105; first compound 0.04 µM) was 0.766. It also gave a relative viability (COR-L 105; first compound 0.1265 µM) of 0.862, a relative viability (COR-L 105; first compound 0.4 µM) of 0.881 and a relative viability (COR-L 105; first compound 4 µM) of 0.435. The relative viability (COR-L23; first compound 0.04 µM) was 0.678, the relative viability (COR-L23; first compound 0.1265 µM) was 0.625 and the relative viability (COR-L23; first compound 0.4 µM) was 0.693. It also gave a relative viability (COR-L23; first compound 4 µM) of 0.516, a relative viability (EKVX; first compound 0.04 µM) of 0.924 and a relative viability (EKVX; first compound 0.1265 µM) of 0.947. For the same molecule, the relative viability (EKVX; first compound 0.4 µM) was 1.13, the relative viability (EKVX; first compound 4 µM) was 0.876 and the relative viability (HARA; first compound 0.04 µM) was 0.697. It also gave a relative viability (HARA; first compound 0.1265 µM) of 0.96, a relative viability (HARA; first compound 0.4 µM) of 1.07 and a relative viability (HARA; first compound 4 µM) of 0.988. The relative viability (HCC-15; first compound 0.04 µM) was 0.8, the relative viability (HCC-15; first compound 0.1265 µM) was 0.75 and the relative viability (HCC-15; first compound 0.4 µM) was 0.831. It also gave a relative viability (HCC-15; first compound 4 µM) of 0.734, a relative viability (HCC-44; first compound 0.04 µM) of 0.853 and a relative viability (HCC-44; first compound 0.1265 µM) of 0.828. The relative viability (HCC-44; first compound 0.4 µM) was 0.699, the relative viability (HCC-44; first compound 4 µM) was 0.526 and the relative viability (HCC-827; first compound 0.04 µM) was 1. The relative viability (HCC-827; first compound 0.1265 µM) was 0.817, the relative viability (HCC-827; first compound 0.4 µM) was 0.929 and the relative viability (HCC-827; first compound 4 µM) was 0.983. The relative viability (LCLC-103H; first compound 0.04 µM) was 1.08, the relative viability (LCLC-103H; first compound 0.1265 µM) was 1.03 and the relative viability (LCLC-103H; first compound 0.4 µM) was 0.984. It also gave a relative viability (LCLC-103H; first compound 4 µM) of 1.03, a relative viability (LK-2; first compound 0.1265 µM) of 0.198 and a relative viability (LK-2; first compound 0.4 µM) of 0.242. It also gave a relative viability (LK-2; first compound 4 µM) of 0.191, a relative viability (NCI-H1437; first compound 0.04 µM) of 0.986 and a relative viability (NCI-H1437; first compound 0.1265 µM) of 0.899. For the same molecule, the relative viability (NCI-H1437; first compound 0.4 µM) was 0.924, the relative viability (NCI-H1437; first compound 4 µM) was 0.778 and the relative viability (NCI-H1666; first compound 0.04 µM) was 0.928. For the same molecule, the relative viability (NCI-H1666; first compound 0.1265 µM) was 1.05, the relative viability (NCI-H1666; first compound 0.4 µM) was 1.11 and the relative viability (NCI-H1666; first compound 4 µM) was 0.661. It also gave a relative viability (NCI-H1792; first compound 0.04 µM) of 0.966, a relative viability (NCI-H1792; first compound 0.1265 µM) of 0.921 and a relative viability (NCI-H1792; first compound 0.4 µM) of 0.959. The relative viability (NCI-H1792; first compound 4 µM) was 0.932, the relative viability (NCI-H1975; first compound 0.04 µM) was 0.947 and the relative viability (NCI-H1975; first compound 0.1265 µM) was 0.905. The relative viability (NCI-H1975; first compound 0.4 µM) was 0.937, the relative viability (NCI-H1975; first compound 4 µM) was 0.781 and the relative viability (NCI-H23; first compound 0.04 µM) was 0.521. For the same molecule, the relative viability (NCI-H23; first compound 0.1265 µM) was 0.487, the relative viability (NCI-H23; first compound 0.4 µM) was 0.369 and the relative viability (NCI-H23; first compound 4 µM) was 0.487. The relative viability (NCI-H441; first compound 0.04 µM) was 0.944, the relative viability (NCI-H441; first compound 0.1265 µM) was 0.788 and the relative viability (NCI-H441; first compound 0.4 µM) was 0.707. For the same molecule, the relative viability (NCI-H441; first compound 4 µM) was 0.587, the relative viability (NCI-H520; first compound 0.04 µM) was 0.64 and the relative viability (NCI-H520; first compound 0.1265 µM) was 0.711. It also gave a relative viability (NCI-H520; first compound 0.4 µM) of 0.497, a relative viability (NCI-H520; first compound 4 µM) of 0.534 and a relative viability (NCI-H596; first compound 0.04 µM) of 0.934. For the same molecule, the relative viability (NCI-H596; first compound 0.1265 µM) was 0.928, the relative viability (NCI-H596; first compound 0.4 µM) was 0.983 and the relative viability (NCI-H596; first compound 4 µM) was 0.964. It also gave a relative viability (NCI-H650; first compound 0.04 µM) of 0.433, a relative viability (NCI-H650; first compound 0.1265 µM) of 0.753 and a relative viability (NCI-H650; first compound 0.4 µM) of 0.727. It also gave a relative viability (NCI-H650; first compound 4 µM) of 0.602, a relative viability (NCI-H838; first compound 0.04 µM) of 0.886 and a relative viability (NCI-H838; first compound 0.1265 µM) of 0.77. It also gave a relative viability (NCI-H838; first compound 0.4 µM) of 0.755, a relative viability (NCI-H838; first compound 4 µM) of 0.616 and a relative viability (SK-MES-1; first compound 0.04 µM) of 1.08. It also gave a relative viability (SK-MES-1; first compound 0.1265 µM) of 0.991, a relative viability (SK-MES-1; first compound 0.4 µM) of 0.917 and a relative viability (SK-MES-1; first compound 4 µM) of 0.774.
